{"source": "paper PMC10066365", "about": "“Nemacol is a small molecule inhibitor of C. elegans vesicular acetylcholine transporter with anthelmintic potential” (Nature Communications, 2023)", "key": {"[1]": {"test_system": "C. elegans", "test": "Suppression of trichlorfon (AChE inhibitor) paralysis, double dose-response, scored after 80 min", "format": "in vivo, Caenorhabditis elegans", "details": "for EC50: Caenorhabditis elegans, ± 95% CI; for % para (percentage of animals able to adopt a clear sinusoidal wave pattern upon touch on the nose): wild-type, bio rep 1-3"}, "[2]": {"molecular_target": "T1, rat VAChT (Rattus norvegicus, UniProt Q62666)", "T1 construct": "expressed in transfected cells; host or cells: rat PC12 (PC12 A123.7) cells, stably transfected; shared by Dr. Ali Roghani (Texas Tech University)", "T1 sequence (Q62666 1-530)": "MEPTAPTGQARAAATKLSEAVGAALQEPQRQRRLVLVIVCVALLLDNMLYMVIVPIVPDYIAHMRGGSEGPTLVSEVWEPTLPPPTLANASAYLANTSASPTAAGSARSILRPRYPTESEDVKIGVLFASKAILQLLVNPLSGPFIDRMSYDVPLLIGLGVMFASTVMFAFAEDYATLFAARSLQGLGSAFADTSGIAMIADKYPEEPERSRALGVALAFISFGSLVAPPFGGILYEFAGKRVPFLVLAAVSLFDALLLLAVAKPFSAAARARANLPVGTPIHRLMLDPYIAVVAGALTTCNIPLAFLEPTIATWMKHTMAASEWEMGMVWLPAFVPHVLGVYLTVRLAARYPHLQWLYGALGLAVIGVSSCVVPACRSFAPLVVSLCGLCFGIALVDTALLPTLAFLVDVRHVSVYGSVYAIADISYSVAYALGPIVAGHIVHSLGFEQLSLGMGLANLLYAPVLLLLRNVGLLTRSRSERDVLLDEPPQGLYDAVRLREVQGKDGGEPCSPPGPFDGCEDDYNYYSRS", "test": "[3H]Vesamicol competitive radioligand binding, PC12 cells expressing ratVAChT", "details": "for specific binding in % of total binding (corrected by nonspecific binding NB), mean: rVAChT-PC12, 21°C, 1% DMSO"}, "[3]": {"test_system": "C. elegans", "test": "C. elegans motor phenotype scoring on solid media (Punc/jerky-unc, coiled, paralyzed), wild-type young adults", "format": "in vivo, Caenorhabditis elegans", "details": "for any phene (mean % fraction of young adults exhibiting any phenotype: coiled, jerky-Unc or paralyzed): one hour, mean of three biological replicates"}, "[4]": {"test_system": "Dirofilaria immitis microfilariae", "test": "Dirofilaria immitis microfilariae immobility assay (DiroImager, 72 h)", "details": "for % effect (motility), DIROIM MF: Dirofilaria immitis microfilariae", "procedure,_shortened": "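Motility read after 72 h drug exposure with an image-based high-throughput plate imager, 1% DMSO medium serving as negative control. Missouri-isolate microfilariae, roughly 250 per well, freshly purified and cultured in supplemented RPMI 1640.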"}, "[5]": {"test_system": "Dirofilaria immitis L3/L4", "test": "Dirofilaria immitis L3/L4 motility assay (DiroImager, 72 h)", "details": "Dirofilaria immitis L4"}}, "note": "“And” between values parts separate entries of the source, which are not always exact repeats. Identical values can stand only once."}
{"smiles": "COP(=O)(OC)C(O)C(Cl)(Cl)Cl", "note": "(stereo not shown) [trichlorfon]", "values": [{"measurement": "EC50", "setting": "[1]; read-out: EC50 of trichlorfon paralysis, nemacol-1 15 μM", "result": "132 ± 34", "unit": "µM"}, {"measurement": "EC50", "setting": "[1]; read-out: EC50 of trichlorfon paralysis, nemacol-1 30 μM", "result": "178 ± 17", "unit": "µM"}, {"measurement": "EC50", "setting": "[1]; read-out: EC50 of trichlorfon paralysis, nemacol-1 60 μM", "result": "138 ± 60", "unit": "µM"}, {"measurement": "EC50", "setting": "[1]; read-out: EC50 of trichlorfon paralysis, trichlorfon alone", "result": "83 ± 7", "unit": "µM"}, {"measurement": "EC50", "setting": "[1]; read-out: EC50 of trichlorfon paralysis, vesamicol 31.3 μM", "result": "102 ± 11", "unit": "µM"}, {"measurement": "EC50", "setting": "[1]; read-out: EC50 of trichlorfon paralysis, vesamicol 62.5 μM", "result": "121 ± 10", "unit": "µM"}, {"measurement": "EC50", "setting": "[1]; read-out: EC50 of trichlorfon paralysis, vesamicol 125 μM", "result": "145 ± 17", "unit": "µM"}, {"measurement": "EC50", "setting": "[1]; read-out: EC50 of trichlorfon paralysis, vesamicol 250 μM", "result": "180 ± 22", "unit": "µM"}, {"measurement": "EC50", "setting": "[1]; read-out: EC50 of trichlorfon paralysis, vesamicol 500 μM", "result": "201 ± 27", "unit": "µM"}, {"measurement": "% para (percentage of animals able to adopt a clear sinusoidal wave pattern upon touch on the nose)", "setting": "[1]; trichlorfon 25 uM, Nemacol-1 0 uM (Nemacol-1 series)", "result": "92.8571% and 100%"}, {"measurement": "% para (percentage of animals able to adopt a clear sinusoidal wave pattern upon touch on the nose)", "setting": "[1]; trichlorfon 25 uM, vesamicol 0 uM (vesamicol series)", "result": "92.8571% and 100%"}, {"measurement": "% para (percentage of animals able to adopt a clear sinusoidal wave pattern upon touch on the nose)", "setting": "[1]; trichlorfon 50 uM, Nemacol-1 0 uM (Nemacol-1 series)", "result": "85.7143% and 75% and 67.8571%"}, {"measurement": "% para (percentage of animals able to adopt a clear sinusoidal wave pattern upon touch on the nose)", "setting": "[1]; trichlorfon 50 uM, vesamicol 0 uM (vesamicol series)", "result": "71.4286% and 75% and 96.4286%"}, {"measurement": "% para (percentage of animals able to adopt a clear sinusoidal wave pattern upon touch on the nose)", "setting": "[1]; trichlorfon 100 uM, vesamicol 0 uM (vesamicol series)", "result": "42.8571% and 50%"}, {"measurement": "% para (percentage of animals able to adopt a clear sinusoidal wave pattern upon touch on the nose)", "setting": "[1]; trichlorfon 200 uM, Nemacol-1 0 uM (Nemacol-1 series)", "result": "7.143% and 3.571%"}, {"measurement": "% para (percentage of animals able to adopt a clear sinusoidal wave pattern upon touch on the nose)", "setting": "[1]; trichlorfon 400 uM, Nemacol-1 0 uM (Nemacol-1 series)", "result": 0, "unit": "%"}, {"measurement": "% para (percentage of animals able to adopt a clear sinusoidal wave pattern upon touch on the nose)", "setting": "[1]; trichlorfon 400 uM, vesamicol 0 uM (vesamicol series)", "result": "0% and 3.571%"}, {"measurement": "% para (percentage of animals able to adopt a clear sinusoidal wave pattern upon touch on the nose)", "setting": "[1]; trichlorfon 800 uM, Nemacol-1 0 uM (Nemacol-1 series)", "result": 0, "unit": "%"}, {"measurement": "% para (percentage of animals able to adopt a clear sinusoidal wave pattern upon touch on the nose)", "setting": "[1]; trichlorfon 800 uM, vesamicol 0 uM (vesamicol series)", "result": 0, "unit": "%"}]}
{"smiles": "O=[N+]([O-])c1ccc(N2CCN(C3CCCCCC3)CC2)cc1", "note": "[Nemacol-19]", "values": [{"measurement": "Ki", "setting": "[2]; [3H]Vesamicol displacement, mean, read-out: ratVAChT Ki", "result": 0.462, "unit": "µM"}, {"measurement": "any phene (mean % fraction of young adults exhibiting any phenotype: coiled, jerky-Unc or paralyzed)", "setting": "[3]; 3.75uM, third c14 line of each analog", "result": 43.3333, "unit": "%"}, {"measurement": "any phene (mean % fraction of young adults exhibiting any phenotype: coiled, jerky-Unc or paralyzed)", "setting": "[3]; 15uM, second c14 line of each analog", "result": 97.5, "unit": "%"}, {"measurement": "EC50", "setting": "[3]; Caenorhabditis elegans, any motor phenotype after 1 h on solid media, ± 95% CI, read-out: C. elegans - motor disruption EC50", "result": "4.1 ± 1.4", "unit": "µM"}, {"measurement": "% effect (motility), DIROIM MF", "setting": "[4]; 0.016 µM", "result": 0, "unit": "%"}, {"measurement": "% effect (motility), DIROIM MF", "setting": "[4]; 0.08 µM", "result": 0, "unit": "%"}, {"measurement": "% effect (motility), DIROIM MF", "setting": "[4]; 0.4 µM", "result": 0, "unit": "%"}, {"measurement": "% effect (motility), DIROIM MF", "setting": "[4]; 2 µM", "result": 0, "unit": "%"}, {"measurement": "% effect (motility), DIROIM MF", "setting": "[4]; 10 µM", "result": 40, "unit": "%"}, {"measurement": "EC50", "setting": "[4]; Dirofilaria immitis, 72 h, read-out: Dirofilaria immitis filariae EC50", "result": 10.7, "unit": "µM"}, {"measurement": "% effect (motility), DIROIM L4", "setting": "[5]; 2 µM", "result": 0, "unit": "%"}, {"measurement": "% effect (motility), DIROIM L4", "setting": "[5]; 10 µM", "result": 0, "unit": "%"}, {"measurement": "% effect (motility), DIROIM L4", "setting": "[5]; 50 µM", "result": 100, "unit": "%"}]}
{"smiles": "O[C@@H]1CCCC[C@H]1N1CCC(c2ccccc2)CC1", "note": "[minus Vesamicol]", "values": [{"measurement": "specific binding in % of total binding (corrected by nonspecific binding NB), mean", "setting": "[2]; competitor 1.00E-05 M, experiment 2019-10-30, 2.92E-09 M 3H-vesamicol, 120 min", "result": 0.0405, "unit": "%"}, {"measurement": "specific binding in % of total binding (corrected by nonspecific binding NB), mean", "setting": "[2]; competitor 1.00E-05 M, experiment 2019-11-21, 2.20E-09 M 3H-vesamicol, 90 min", "result": "1.18e-15", "unit": "%"}, {"measurement": "specific binding in % of total binding (corrected by nonspecific binding NB), mean", "setting": "[2]; competitor 1.00E-06 M, experiment 2019-10-30, 2.92E-09 M 3H-vesamicol, 120 min", "result": 5, "unit": "%"}, {"measurement": "specific binding in % of total binding (corrected by nonspecific binding NB), mean", "setting": "[2]; competitor 1.00E-06 M, experiment 2019-11-21, 2.20E-09 M 3H-vesamicol, 90 min", "result": 4, "unit": "%"}, {"measurement": "specific binding in % of total binding (corrected by nonspecific binding NB), mean", "setting": "[2]; competitor 1.00E-07 M, experiment 2019-10-30, 2.92E-09 M 3H-vesamicol, 120 min", "result": 29, "unit": "%"}, {"measurement": "specific binding in % of total binding (corrected by nonspecific binding NB), mean", "setting": "[2]; competitor 1.00E-07 M, experiment 2019-11-21, 2.20E-09 M 3H-vesamicol, 90 min", "result": 28, "unit": "%"}, {"measurement": "specific binding in % of total binding (corrected by nonspecific binding NB), mean", "setting": "[2]; competitor 1.00E-08 M, experiment 2019-10-30, 2.92E-09 M 3H-vesamicol, 120 min", "result": 79, "unit": "%"}, {"measurement": "specific binding in % of total binding (corrected by nonspecific binding NB), mean", "setting": "[2]; competitor 1.00E-08 M, experiment 2019-11-21, 2.20E-09 M 3H-vesamicol, 90 min", "result": 82, "unit": "%"}, {"measurement": "specific binding in % of total binding (corrected by nonspecific binding NB), mean", "setting": "[2]; competitor 1.00E-09 M, experiment 2019-10-30, 2.92E-09 M 3H-vesamicol, 120 min", "result": 94, "unit": "%"}, {"measurement": "specific binding in % of total binding (corrected by nonspecific binding NB), mean", "setting": "[2]; competitor 1.00E-09 M, experiment 2019-11-21, 2.20E-09 M 3H-vesamicol, 90 min", "result": 98, "unit": "%"}, {"measurement": "specific binding in % of total binding (corrected by nonspecific binding NB), mean", "setting": "[2]; competitor 1.00E-10 M, experiment 2019-10-30, 2.92E-09 M 3H-vesamicol, 120 min", "result": 97, "unit": "%"}, {"measurement": "specific binding in % of total binding (corrected by nonspecific binding NB), mean", "setting": "[2]; competitor 1.00E-10 M, experiment 2019-11-21, 2.20E-09 M 3H-vesamicol, 90 min", "result": 98, "unit": "%"}, {"measurement": "specific binding in % of total binding (corrected by nonspecific binding NB), mean", "setting": "[2]; competitor 1.00E-11 M, experiment 2019-10-30, 2.92E-09 M 3H-vesamicol, 120 min", "result": 95, "unit": "%"}, {"measurement": "specific binding in % of total binding (corrected by nonspecific binding NB), mean", "setting": "[2]; competitor 1.00E-11 M, experiment 2019-11-21, 2.20E-09 M 3H-vesamicol, 90 min", "result": 96, "unit": "%"}]}
